Patent US6638919B2, “Antiviral purine derivatives” (University College Cardiff Consultants Limited, priority 2001, dated 2003)
Counter-ions that a name gives are not always drawn. Like-named read-outs stand apart in the source and are kept apart here.

Tests used:
[1] = system: HIV-1; experiment: Inhibition of HIV-1 giant cell formation in CEM cells; assay type: cell-based
Method: (§1) Then 100 μL of the infected cell suspension was transferred to microtiter plate wells and mixed with 100 μL of the appropriate dilutions of the test compounds.
HIV 1 CEM: EC50 in μM for inhibition of HIV1 in CEM cells

[2] = Toxicity to mock-infected CEM cells (CC50); assay type: cell-based; conditions: human
Method: as §1
(§2) CC50 CEM: CC50 in μM for toxicity to CEM cells.
(§3) CC50 CEM: CC50 μM for toxicity to CEM cells

[3] = system: HIV-2; experiment: Inhibition of HIV-2 giant cell formation in CEM cells; assay type: cell-based
Method: as §1
HIV1 CEM: EC50 in μM for inhibition of […] in CEM cells.
HIV2 CEM: EC50 in μM for inhibition of HIV-2 in CEM cells

[4] = Biological stability in heparinised human plasma; conditions: heparinised human plasma, 37° C.
Method: Each compound was incubated in normal heparinised human plasma at 37° C. for 4 hours. […] Drug concentrations were then determined by LC/MS/MS analysis using standard methods.

[5] = Acid stability, dilute HCl pH1, simulated stomach conditions; assay type: physicochemical; conditions: 0.1N HCl pH1, 25° C.
Method: Compounds were tested for their stability towards acid-mediated hydrolytic decomposition employing a test designed to simulate stomach conditions. Each compound was incubated in dilute HCl of pH1 for 24 hours at 25° C. 0.3 mg of compound were added to 1 mL of 0.1N HCl at 25° C. HPLC was run immediately for time=0 and at intervals up to approximately 24 hours.

[6] = system: CEM cells; experiment: Toxicity to mock-infected CEM cells (CC50); assay type: cell-based; conditions: Table III; toxicity to CEM cells; read-out: CC50 CEN
Method: as §1, §2, §3

[7] = system: HIV-2; experiment: Inhibition of HIV-2 in CEM.TK- cells; assay type: cell-based; conditions: read-out: HIV2 CEM. TK.
Method: Cells were infected with HIV-1 as previously described [Balzarini et al. AIDS (1991), 5, 21-28]. Briefly, 5×10^5 cells per milliliter were infected with HIV-1 or HV-2 at 100 CClD50 (50% cell culture infective dose) per milliliter of cell suspension. Then 100 μL of the infected cell suspension was transferred to microtiter plate wells and mixed with 100 μL of the appropriate dilutions of the test compounds. After 4 days giant cell formation was recorded microscopically in the HIV-infected cell cultures [CEM].
HIV2CEM.TK- EC50 μM for inhibition of IV-2 in CEM=cells

[8] = system: MSV; experiment: Minimum cytotoxic concentration in MSV assay; assay type: cell-based; set-up: unit not given here; conditions: Table III
Source text: MCC MSV: minimum cytotoxic concentration in MSV essay.

[9] = system: MSV; experiment: Inhibition of MSV; assay type: cell-based; conditions: read-out: EC50 MSV
Method: EC50 MSV: EC50 μM for inhibition of MSV

[10] = Solution stability of salt forms; assay type: physicochemical; conditions: % of parent (AUC) after 27 hr at room temperature
Source text: (§4) The solubility and solution/solid state stability of three salt forms of (1S, 4R)-4-[2-amino-5(cyclopropylamino)-9(H)-purin-9-yl]-2-cyclopentene-1-methanol O-(phenyl ethoxy-L-alaninyl) phosphate

[11] = Solid state stability of salt forms; assay type: physicochemical; conditions: % of parent (AUC) after two weeks at 60° C.
Source text: as §4

[12] = Solid type of salt forms; assay type: physicochemical
[13] = Human immunodeficiency virus 1, CCRF-CEM, 96 h, CEM cells, giant cell formation after 4 days, Tables I and II, read-out: EC50/μM HIV-1 CEM
[14] = mock-infected CEM cells, Tables I and II, read-out: CC50/μM CEM
[15] = Human immunodeficiency virus 2, CCRF-CEM, 96 h, CEM cells, giant cell formation after 4 days, Tables I and II, read-out: EC50/μM HIV-2 CEM
[16] = Table III, EC50 for inhibition of HIV-2 in CEM.TK- cells
[17] = Table III, EC50 for inhibition of HIV-2 in CEM cells, read-out: HIV2 CBM
[18] = Table III, EC50 for inhibition of HIV1 in CEM cells, read-out: HIV1 CBM
[19] = Human immunodeficiency virus 1, CCRF-CEM, Table III, EC50 for inhibition of HIV1 in CEM cells, read-out: HIV1 CBM
[20] = Table III, toxicity to CEM cells, read-out: CC50 CEN
[21] = Human immunodeficiency virus 2, CEM-TK(-)
[22] = Human immunodeficiency virus 2, CCRF-CEM, Table III, EC50 for inhibition of HIV-2 in CEM cells, read-out: HIV2 CBM

With Nc1nc2c(ncn2[C@H]2C=C[C@@H](CO)C2)c(=O)[nH]1 [(1R, 4S)-9-{4-(hydroxymethyl)-2-cyclopenten-1-yl]guanine, reference compound] the EC50 [1, 13] was 2 µM, the CC50 at 4 days [2, 14] was 157 µM and the EC50 [3, 15] was 2.3 µM.
Nc1nc(NC2CC2)c2ncn([C@H]3C=C[C@@H](CO)C3)c2n1 [Abacavir, (1S,4R)-4-[2-anino-6-(cyclopropylamino)-9H-purin-9-yl]-2-cyclopentene-1-methanol, reference compound] gave an EC50 [1, 13] of 1.9 µM, a CC50 at 4 days [2, 14] of 78 µM and an EC50 [3, 15] of 3 µM.
For COC(=O)[C@H](C)NP(=O)(OC[C@@H]1C=C[C@H](n2cnc3c(N)ncnc32)O1)Oc1ccccc1 (stereo partly drawn) [Compound 1001, 2′, 3′-dideoxy-2′, 3′-didehydroadenosine-5′-(phenylmethoxyalaninyl) phosphate], the “Half-life” value [4] was 4.6 h, the “% Remaining at 4 hours” value ([4]; 4 hours) was 52% and the “time to disappearance in acid” value [5] was under 1 min. For the same compound, the “Compound left (%)” value ([5]; time 0 hr) was 0% and the “Compound left (%)” value ([5]; time 17 hr) was 0%.
For C[C@@H](NP(=O)(O)OC[C@@H]1C=C[C@H](n2cnc3c(NC4CC4)nc(N)nc32)C1)C(=O)O [Compound 1595, (1S,4R)-4-(2-amino-6-cyclopropylamino-9H-purin-9-yl)-2-cyclopentene-1-methanol O-(D-alaninyl)-phosphate diammonium salt], the CC50 [6] was 213000 nM, the EC50 [7, 16] was 800 nM and the EC50 [3, 17] was 1.2 µM.
In the case of COC(=O)[C@H](C)NP(=O)(OC[C@@H]1C=C[C@H](n2cnc3c(NC4CC4)nc(N)nc32)C1)Oc1ccc(Cl)cc1 (stereo partly drawn) [Compound 1620, (1S,4R)-4-(2-amino-6-cyclopropylamino-9H-purin-^9-yl)-2-cyclopentene-1-methanol O-[4-chlorophenyl-(methoxy-L-alaninyl)]-phosphate], the EC50 [1, 18] is reported as 0.014 µM, the CC50 [6] is reported as 4700 nM and the EC50 [7, 16] is reported as 13 nM. It also gave an EC50 [3, 17] of 0.063 µM.
In the case of COC(=O)C(NP(=O)(OC[C@@H]1C=CC(n2cnc3c(NC4CC4)nc(N)nc32)C1)Oc1ccccc1)C(C)C (stereo partly drawn) [Compound 1666], the MCCMSV [8] is reported as over 20, the EC50 [1, 19] is reported as 3.5 µM and the CC50 [2, 20] is reported as 54100 nM. It also gave an EC50 [7, 21] of 3500 nM, an EC50 ([9]; Table III, inhibition of MSV) of 11800 nM and an EC50 [3, 22] of 4 µM.
CCC(CC)OC(=O)[C@H](C)NP(=O)(OC[C@@H]1C=CC(n2cnc3c(NC4CC4)nc(N)nc32)C1)Oc1ccccc1 (stereo partly drawn) [Compound 1685] gave an MCCMSV [8] of over 20, an EC50 [1, 19] of 1.6 µM and a CC50 [2, 20] of 19700 nM. For the same compound, the EC50 [7, 21] was 12500 nM, the EC50 ([9]; Table III, inhibition of MSV) was 10100 nM and the EC50 [3, 22] was 2 µM.
Work on C[C@H](NP(=O)(OC[C@@H]1C=CC(n2cnc3c(NC4CC4)nc(N)nc32)C1)Oc1ccccc1)C(=O)OCCC(C)(C)C (stereo partly drawn) [Compound 1687, (1S,4R)-4-(2-amino6cyclopropylamino-9H-purin-9-yl)-2-cyclopentene-1-methanol O-[phenyl(3,3-dimethyl-]-butoxy-L-alaninyl)phosphate] yielded an MCCMSV [8] of over 4, an EC50 [1, 19] of 0.2 µM and a CC50 [2, 20] of 10200 nM. It also gave an EC50 [7, 21] of 140 nM, an EC50 ([9]; Table III, inhibition of MSV) of 2220 nM and an EC50 [3, 22] of 0.2 µM.
Work on COC(=O)[C@H](CC1CCCCC1)NP(=O)(OC[C@@H]1C=C[C@H](n2cnc3c(NC4CC4)nc(N)nc32)C1)Oc1ccccc1 (stereo partly drawn) [Compound 1709, (1 S,4R)-4-(2-amino-6-cyclopropylamino-9H-purin-9-yl)-2-cyclopentene-1-methanol O-Phenyl-(methoxy-3-cyclohexane-L-alaninyl)-phosphate] yielded an MCCMSV [8] of over 4, an EC50 [1, 18] of 1.2 µM and a CC50 [6] of 16000 nM. The EC50 ([9]; Table III, inhibition of MSV) was 1720 nM and the EC50 [3, 17] was 2 µM.
In the case of COC(=O)[C@H](C)NP(=O)(OC[C@@H]1C=C[C@H](n2cnc3c(NC4CC4)nc(N)nc32)C1)Oc1ccc(Br)cc1 (stereo partly drawn) [Compound 1710, (1S,4R)-4-(2-amino-6-cyclopropylamino-9H-purin-9-yl)-2-cyclopentene-1-methanol O-[4-bromophenyl-(methoxy-L-alaninyl)]-phosphate], the MCCMSV [8] is reported as over 0.8, the EC50 [1, 18] is reported as 0.0055 µM and the CC50 [6] is reported as 5780 nM. For the same compound, the EC50 ([9]; Table III, inhibition of MSV) was 510 nM and the EC50 [3, 17] was 0.049 µM.
CCOC(=O)C[C@H](NP(=O)(OC[C@@H]1C=C[C@H](n2cnc3c(NC4CC4)nc(N)nc32)C1)Oc1ccccc1)C(=O)OCC (stereo partly drawn) [Compound 1714, (1S,4R)-4-(2-amino-6-cyclopropylamino-9H-purin-9-yl)-2-cyclopeutene-1-methanol O-(phenyldiethoxy-L-aspartyl phosphate)] gave an MCCMSV [8] of over 20, an EC50 [1, 18] of 0.55 µM and a CC50 [6] of 23100 nM. For the same compound, the EC50 ([9]; Table III, inhibition of MSV) was 7180 nM and the EC50 [3, 17] was 2.1 µM.
COC(=O)[C@H](CCSC)NP(=O)(OC[C@@H]1C=C[C@H](n2cnc3c(NC4CC4)nc(N)nc32)C1)Oc1ccccc1 (stereo partly drawn) [Compound 1715, (1S,4R)-4-(2-amino-6-cyclopropylamino-9H-purin-9-yl)-2-cyclopentene-1-methanol O-(phenylmethoxy-L-methionyl phosphate)] showed an MCCMSV [8] of over 20, an EC50 [1, 18] of 1.15 µM and a CC50 [6] of 48900 nM. It also gave an EC50 ([9]; Table III, inhibition of MSV) of 10200 nM and an EC50 [3, 17] of 2.73 µM.
For COC(=O)C(CC(C)C)NP(=O)(OC[C@@H]1C=CC(n2cnc3c(NC4CC4)nc(N)nc32)C1)Oc1ccccc1 (stereo partly drawn) [Compound 1718], the MCCMSV [8] was over 20, the EC50 [1, 19] was 0.85 µM and the CC50 [2, 20] was 22000 nM. For the same compound, the EC50 ([9]; Table III, inhibition of MSV) was 8840 nM and the EC50 [3, 22] was 1.48 µM.
For COC(=O)[C@@H]1CCCN1P(=O)(OC[C@@H]1C=CC(n2cnc3c(NC4CC4)nc(N)nc32)C1)Oc1ccccc1 (stereo partly drawn) [Compound 1719], the MCCMSV [8] was “≧100”, the EC50 ([1]; Human immunodeficiency virus 1, CCRF-CEM, read-out: HIV1 CBM) was 4 µM and the CC50 at 4 days [2, 20] was 19.4 µM. The EC50 [9] was 11600 nM and the EC50 ([3]; Human immunodeficiency virus 2, CCRF-CEM, read-out: HIV2 CBM) was 5.5 µM.
Compound CC(C)CCCOC(=O)[C@H](C)NP(=O)(OC[C@@H]1C=CC(n2cnc3c(NC4CC4)nc(N)nc32)C1)Oc1ccccc1 (stereo partly drawn) [Compound 1721, (1S,4R)-4-(2-amino-6-cyclopropylamino-9H-purin-9-y))-2-cyclopentene-1-methanol O-[phenyl (4-methyl-1-pentyloxy-L-alaninyl)phosphate] has an MCCMSV [8] of over 4, an EC50 [1, 19] of 0.05 µM and a CC50 [2, 20] of 12500 nM. For the same compound, the EC50 ([9]; Table III, inhibition of MSV) was 2200 nM and the EC50 [3, 22] was 0.14 µM.
For C[C@H](NP(=O)(OC[C@@H]1C=CC(n2cnc3c(NC4CC4)nc(N)nc32)C1)Oc1ccccc1)C(=O)OCC1CCCC1 (stereo partly drawn) [Compound 1722], the EC50 [1, 19] was 0.13 µM, the CC50 [2, 20] was 15200 nM and the EC50 [3, 22] was 0.48 µM.
With CCOC(=O)[C@H](C)NP(=O)(OC[C@@H]1C=C[C@H](n2cnc3c(NC4CC4)nc(N)nc32)C1)Oc1ccccc1.O=C(O)CCC(=O)O (stereo partly drawn) [Example 1, (1S,4R)-442-Amino-6-cyclopropylamino-9(purin-9-yl)-2-cyclopentene-1-methanol O-(phenylethoxy-L-alaninyl) phosphate Succinate Salt] the “Stability (%) 0.1 N HCl” value ([10]; 0.1 N HCl) was 66.0%, the “Stability (%) HPMC/Tween” value ([10]; HPMC/Tween) was 98.8% and the “Stability (%) PBS” value ([10]; PBS) was 99.8%. For the same compound, the “Solid State Stability (%)” value [11] was 99.6% and the “Solid Type” value [12] was “crystals”.
With “(1S,4R)-4-(2-amino6cyclopropyl-2 -amino-9H-purin-9-yl)-2-cyclopentene-1-methanol O-((P-(2 2-dimethoxy-L-propionic acid methyl ester)-phenyl)methoxyalaninyl phosphate) [Compound 1671]” the MCCMSV [8] was over 20, the EC50 [1, 18] was 0.1 µM and the CC50 [6] was 12100 nM. It also gave an EC50 ([9]; Table III, inhibition of MSV) of 9200 nM and an EC50 [3, 17] of 0.12 µM.
